How the values were obtained:
[1] = Oral bioavailability in Wistar rat at 10 mg/kg; format: ADME, organism-based; conditions: in vivo
[2] = target: Phosphatidylinositol 3-kinase catalytic subunit type 3 (Homo sapiens, UniProt Q8NEB9); experiment: Inhibition of Vps34
[3] = Antiinflammatory activity in human neutrophils assessed as inhibition of fMLP-induced oxidative burst; format: functional, cell-based; conditions: neutrophil
[4] = target: T1, Phosphatidylinositol 4,5-bisphosphate 3-kinase catalytic subunit beta isoform (Homo sapiens, UniProt P42338); experiment: Inhibition of recombinant GST-tagged PI3K p110beta using [32P]ATP after 60 mins by scintillation proximity assay
[5] = target: T2, Phosphatidylinositol 4,5-bisphosphate 3-kinase catalytic subunit delta isoform (Homo sapiens, UniProt O00329); experiment: Inhibition of recombinant GST-tagged PI3K p110delta using [32P]ATP after 60 mins by scintillation proximity assay
T2 sequence (O00329 whole entry): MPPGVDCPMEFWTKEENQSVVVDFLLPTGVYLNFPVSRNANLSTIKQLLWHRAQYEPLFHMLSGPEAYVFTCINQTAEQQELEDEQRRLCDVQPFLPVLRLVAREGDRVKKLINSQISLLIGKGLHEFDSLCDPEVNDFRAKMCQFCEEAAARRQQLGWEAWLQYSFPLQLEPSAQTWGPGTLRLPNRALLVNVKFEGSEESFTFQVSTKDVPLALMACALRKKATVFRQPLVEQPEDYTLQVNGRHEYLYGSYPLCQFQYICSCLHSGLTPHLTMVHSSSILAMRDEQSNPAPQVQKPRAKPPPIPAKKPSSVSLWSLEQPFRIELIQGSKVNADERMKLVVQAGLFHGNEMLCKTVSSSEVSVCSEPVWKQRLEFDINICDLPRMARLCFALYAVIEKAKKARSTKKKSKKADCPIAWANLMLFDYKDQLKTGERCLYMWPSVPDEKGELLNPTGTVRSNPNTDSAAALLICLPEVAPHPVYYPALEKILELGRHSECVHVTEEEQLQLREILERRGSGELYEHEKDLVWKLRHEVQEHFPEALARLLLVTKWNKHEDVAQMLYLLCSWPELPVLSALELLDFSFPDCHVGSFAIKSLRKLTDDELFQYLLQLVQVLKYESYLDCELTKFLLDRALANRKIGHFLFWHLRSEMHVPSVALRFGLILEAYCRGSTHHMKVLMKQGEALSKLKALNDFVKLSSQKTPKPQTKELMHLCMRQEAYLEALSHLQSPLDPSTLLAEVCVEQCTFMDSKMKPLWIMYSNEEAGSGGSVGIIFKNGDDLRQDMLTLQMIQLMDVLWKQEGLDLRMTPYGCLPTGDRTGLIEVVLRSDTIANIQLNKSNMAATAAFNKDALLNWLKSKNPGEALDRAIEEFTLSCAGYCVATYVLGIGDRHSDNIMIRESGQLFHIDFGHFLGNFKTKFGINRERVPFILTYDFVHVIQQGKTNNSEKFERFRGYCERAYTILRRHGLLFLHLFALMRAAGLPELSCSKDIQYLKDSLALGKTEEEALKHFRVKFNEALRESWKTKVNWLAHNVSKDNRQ

[6] = target: T3, Phosphatidylinositol 4,5-bisphosphate 3-kinase catalytic subunit alpha isoform (Homo sapiens, UniProt P42336); experiment: Inhibition of recombinant GST-tagged PI3K p110alpha using [32P]ATP after 60 mins by scintillation proximity assay
[7] = Antiinflammatory activity in mouse B cells assessed as inhibition of mitogen-induced proliferation; format: functional, cell-based
[8] = Tmax in Wistar rat at 10 mg/kg, po; format: ADME, organism-based; parameters: dose 10 mg/kg, route oral; conditions: in vivo
Rattus norvegicus [9] = experiment: (§1) AUC in Wistar rat at 10 mg/kg, po; format: ADME, organism-based, Plasma; parameters: dose 10 mg/kg, route oral; conditions: in vivo
[10] = Antiinflammatory activity in human B cells assessed as inhibition of mitogen-induced proliferation; format: functional, cell-based; conditions: B-cell
[11] = target: DNA-dependent protein kinase catalytic subunit (Homo sapiens, UniProt P78527); experiment: Inhibition of DNA-PK
[12] = target: T4, Phosphatidylinositol 4,5-bisphosphate 3-kinase catalytic subunit gamma isoform (Homo sapiens, UniProt P48736)
Description: Inhibition of recombinant GST-tagged PI3K p110gamma using [32P]ATP after 60 mins by scintillation proximity assay

[13] = Half life in Wistar rat at 10 mg/kg, po; format: ADME, organism-based; parameters: dose 10 mg/kg, route oral; conditions: in vivo
[14] = target: Phosphatidylinositol 4-kinase beta (Homo sapiens, UniProt Q9UBF8); experiment: Inhibition of PI4Kbeta
Rattus norvegicus [15] = experiment: Volume of distribution at steady state in Wistar rat at 10 mg/kg, po; format: ADME, organism-based; parameters: dose 10 mg/kg, route oral; conditions: in vivo
[16] = Aqueous solubility of the compound at pH 6.8; format: physicochemical
[17] = Cmax in Wistar rat at 10 mg/kg, po; format: ADME, organism-based; parameters: dose 10 mg/kg, route oral; conditions: in vivo
[18] = target: Serine/threonine-protein kinase mTOR (Homo sapiens, UniProt P42345); experiment: Inhibition of mTOR
[19] = Clearance in Wistar rat at 10 mg/kg, po; format: ADME, organism-based; parameters: dose 10 mg/kg, route oral; conditions: in vivo
[20] = as §1; format: ADME, organism-based, Plasma; parameters: dose 10 mg/kg, route oral; conditions: Wistar, plasma
[21] = target: T1, Phosphatidylinositol 4,5-bisphosphate 3-kinase catalytic subunit beta isoform; experiment: Inhibition of recombinant GST-tagged PI3K p110beta by KinaseGlo assay
[22] = target: T2, Phosphatidylinositol 4,5-bisphosphate 3-kinase catalytic subunit delta isoform; experiment: Inhibition of recombinant GST-tagged PI3K p110delta by KinaseGlo assay
[23] = target: T4, Phosphatidylinositol 4,5-bisphosphate 3-kinase catalytic subunit gamma isoform; experiment: Inhibition of recombinant GST-tagged PI3K p110gamma by KinaseGlo assay
[24] = target: T3, Phosphatidylinositol 4,5-bisphosphate 3-kinase catalytic subunit alpha isoform; experiment: Inhibition of recombinant GST-tagged PI3K p110alpha by KinaseGlo assay
[25] = Cmax in Wistar rat at 5 mg/kg, po; format: ADME, organism-based; parameters: dose 5 mg/kg, route oral; conditions: in vivo
[26] = Tmax in Wistar rat at 5 mg/kg, po; format: ADME, organism-based; parameters: dose 5 mg/kg, route oral; conditions: in vivo
[27] = AUC in Wistar rat at 5 mg/kg, po; format: ADME, organism-based; parameters: dose 5 mg/kg, route oral; conditions: plasma
[28] = Oral bioavailability in Wistar rat at 5 mg/kg; format: ADME, organism-based; conditions: in vivo
[29] = target: Dual specificity protein kinase CLK1 (Homo sapiens, UniProt P49759); experiment: Inhibition of CLK1
[30] = Clearance in Wistar rat at 5 mg/kg, po; format: ADME, organism-based; parameters: dose 5 mg/kg, route oral; conditions: in vivo
[31] = Half life in Wistar rat at 5 mg/kg, po; format: ADME, organism-based; parameters: dose 5 mg/kg, route oral; conditions: in vivo
[32] = target: Dual specificity protein kinase CLK2 (Homo sapiens, UniProt P49760); experiment: Inhibition of CLK2
Rattus norvegicus [33] = experiment: Volume of distribution at steady state in Wistar rat at 5 mg/kg, po; format: ADME, organism-based; parameters: dose 5 mg/kg, route oral; conditions: in vivo

T1 sequence (P42338 whole entry, canonical isoform): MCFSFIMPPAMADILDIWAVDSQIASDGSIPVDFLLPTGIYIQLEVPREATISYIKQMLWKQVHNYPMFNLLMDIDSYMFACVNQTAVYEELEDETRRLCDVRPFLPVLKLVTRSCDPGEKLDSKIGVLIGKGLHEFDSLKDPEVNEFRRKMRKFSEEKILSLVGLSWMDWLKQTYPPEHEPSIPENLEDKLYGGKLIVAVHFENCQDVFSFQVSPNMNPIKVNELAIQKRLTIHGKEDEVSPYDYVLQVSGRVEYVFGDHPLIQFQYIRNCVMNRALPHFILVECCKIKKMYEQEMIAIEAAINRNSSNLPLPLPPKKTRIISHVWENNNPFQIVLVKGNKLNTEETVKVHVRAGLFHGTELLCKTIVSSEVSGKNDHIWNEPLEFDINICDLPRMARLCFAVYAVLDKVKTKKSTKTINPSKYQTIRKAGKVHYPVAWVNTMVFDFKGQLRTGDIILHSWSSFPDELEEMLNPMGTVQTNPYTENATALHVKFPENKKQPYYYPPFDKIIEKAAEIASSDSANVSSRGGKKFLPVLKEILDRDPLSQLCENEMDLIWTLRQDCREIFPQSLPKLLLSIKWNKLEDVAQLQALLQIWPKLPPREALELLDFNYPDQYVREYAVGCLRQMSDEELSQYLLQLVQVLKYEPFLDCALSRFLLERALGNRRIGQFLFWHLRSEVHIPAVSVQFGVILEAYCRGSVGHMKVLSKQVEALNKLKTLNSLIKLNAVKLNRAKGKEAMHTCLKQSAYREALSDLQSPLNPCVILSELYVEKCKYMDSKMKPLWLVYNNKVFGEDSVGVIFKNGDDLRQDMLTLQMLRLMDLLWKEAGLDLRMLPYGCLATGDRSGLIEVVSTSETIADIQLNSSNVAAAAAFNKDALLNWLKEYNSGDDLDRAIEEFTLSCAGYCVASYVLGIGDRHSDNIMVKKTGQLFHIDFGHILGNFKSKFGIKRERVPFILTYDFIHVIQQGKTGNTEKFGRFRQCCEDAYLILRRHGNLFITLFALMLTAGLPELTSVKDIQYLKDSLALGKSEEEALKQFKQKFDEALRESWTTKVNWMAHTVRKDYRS
DNA-dependent protein kinase catalytic subunit, sequence (P78527 whole entry, canonical isoform): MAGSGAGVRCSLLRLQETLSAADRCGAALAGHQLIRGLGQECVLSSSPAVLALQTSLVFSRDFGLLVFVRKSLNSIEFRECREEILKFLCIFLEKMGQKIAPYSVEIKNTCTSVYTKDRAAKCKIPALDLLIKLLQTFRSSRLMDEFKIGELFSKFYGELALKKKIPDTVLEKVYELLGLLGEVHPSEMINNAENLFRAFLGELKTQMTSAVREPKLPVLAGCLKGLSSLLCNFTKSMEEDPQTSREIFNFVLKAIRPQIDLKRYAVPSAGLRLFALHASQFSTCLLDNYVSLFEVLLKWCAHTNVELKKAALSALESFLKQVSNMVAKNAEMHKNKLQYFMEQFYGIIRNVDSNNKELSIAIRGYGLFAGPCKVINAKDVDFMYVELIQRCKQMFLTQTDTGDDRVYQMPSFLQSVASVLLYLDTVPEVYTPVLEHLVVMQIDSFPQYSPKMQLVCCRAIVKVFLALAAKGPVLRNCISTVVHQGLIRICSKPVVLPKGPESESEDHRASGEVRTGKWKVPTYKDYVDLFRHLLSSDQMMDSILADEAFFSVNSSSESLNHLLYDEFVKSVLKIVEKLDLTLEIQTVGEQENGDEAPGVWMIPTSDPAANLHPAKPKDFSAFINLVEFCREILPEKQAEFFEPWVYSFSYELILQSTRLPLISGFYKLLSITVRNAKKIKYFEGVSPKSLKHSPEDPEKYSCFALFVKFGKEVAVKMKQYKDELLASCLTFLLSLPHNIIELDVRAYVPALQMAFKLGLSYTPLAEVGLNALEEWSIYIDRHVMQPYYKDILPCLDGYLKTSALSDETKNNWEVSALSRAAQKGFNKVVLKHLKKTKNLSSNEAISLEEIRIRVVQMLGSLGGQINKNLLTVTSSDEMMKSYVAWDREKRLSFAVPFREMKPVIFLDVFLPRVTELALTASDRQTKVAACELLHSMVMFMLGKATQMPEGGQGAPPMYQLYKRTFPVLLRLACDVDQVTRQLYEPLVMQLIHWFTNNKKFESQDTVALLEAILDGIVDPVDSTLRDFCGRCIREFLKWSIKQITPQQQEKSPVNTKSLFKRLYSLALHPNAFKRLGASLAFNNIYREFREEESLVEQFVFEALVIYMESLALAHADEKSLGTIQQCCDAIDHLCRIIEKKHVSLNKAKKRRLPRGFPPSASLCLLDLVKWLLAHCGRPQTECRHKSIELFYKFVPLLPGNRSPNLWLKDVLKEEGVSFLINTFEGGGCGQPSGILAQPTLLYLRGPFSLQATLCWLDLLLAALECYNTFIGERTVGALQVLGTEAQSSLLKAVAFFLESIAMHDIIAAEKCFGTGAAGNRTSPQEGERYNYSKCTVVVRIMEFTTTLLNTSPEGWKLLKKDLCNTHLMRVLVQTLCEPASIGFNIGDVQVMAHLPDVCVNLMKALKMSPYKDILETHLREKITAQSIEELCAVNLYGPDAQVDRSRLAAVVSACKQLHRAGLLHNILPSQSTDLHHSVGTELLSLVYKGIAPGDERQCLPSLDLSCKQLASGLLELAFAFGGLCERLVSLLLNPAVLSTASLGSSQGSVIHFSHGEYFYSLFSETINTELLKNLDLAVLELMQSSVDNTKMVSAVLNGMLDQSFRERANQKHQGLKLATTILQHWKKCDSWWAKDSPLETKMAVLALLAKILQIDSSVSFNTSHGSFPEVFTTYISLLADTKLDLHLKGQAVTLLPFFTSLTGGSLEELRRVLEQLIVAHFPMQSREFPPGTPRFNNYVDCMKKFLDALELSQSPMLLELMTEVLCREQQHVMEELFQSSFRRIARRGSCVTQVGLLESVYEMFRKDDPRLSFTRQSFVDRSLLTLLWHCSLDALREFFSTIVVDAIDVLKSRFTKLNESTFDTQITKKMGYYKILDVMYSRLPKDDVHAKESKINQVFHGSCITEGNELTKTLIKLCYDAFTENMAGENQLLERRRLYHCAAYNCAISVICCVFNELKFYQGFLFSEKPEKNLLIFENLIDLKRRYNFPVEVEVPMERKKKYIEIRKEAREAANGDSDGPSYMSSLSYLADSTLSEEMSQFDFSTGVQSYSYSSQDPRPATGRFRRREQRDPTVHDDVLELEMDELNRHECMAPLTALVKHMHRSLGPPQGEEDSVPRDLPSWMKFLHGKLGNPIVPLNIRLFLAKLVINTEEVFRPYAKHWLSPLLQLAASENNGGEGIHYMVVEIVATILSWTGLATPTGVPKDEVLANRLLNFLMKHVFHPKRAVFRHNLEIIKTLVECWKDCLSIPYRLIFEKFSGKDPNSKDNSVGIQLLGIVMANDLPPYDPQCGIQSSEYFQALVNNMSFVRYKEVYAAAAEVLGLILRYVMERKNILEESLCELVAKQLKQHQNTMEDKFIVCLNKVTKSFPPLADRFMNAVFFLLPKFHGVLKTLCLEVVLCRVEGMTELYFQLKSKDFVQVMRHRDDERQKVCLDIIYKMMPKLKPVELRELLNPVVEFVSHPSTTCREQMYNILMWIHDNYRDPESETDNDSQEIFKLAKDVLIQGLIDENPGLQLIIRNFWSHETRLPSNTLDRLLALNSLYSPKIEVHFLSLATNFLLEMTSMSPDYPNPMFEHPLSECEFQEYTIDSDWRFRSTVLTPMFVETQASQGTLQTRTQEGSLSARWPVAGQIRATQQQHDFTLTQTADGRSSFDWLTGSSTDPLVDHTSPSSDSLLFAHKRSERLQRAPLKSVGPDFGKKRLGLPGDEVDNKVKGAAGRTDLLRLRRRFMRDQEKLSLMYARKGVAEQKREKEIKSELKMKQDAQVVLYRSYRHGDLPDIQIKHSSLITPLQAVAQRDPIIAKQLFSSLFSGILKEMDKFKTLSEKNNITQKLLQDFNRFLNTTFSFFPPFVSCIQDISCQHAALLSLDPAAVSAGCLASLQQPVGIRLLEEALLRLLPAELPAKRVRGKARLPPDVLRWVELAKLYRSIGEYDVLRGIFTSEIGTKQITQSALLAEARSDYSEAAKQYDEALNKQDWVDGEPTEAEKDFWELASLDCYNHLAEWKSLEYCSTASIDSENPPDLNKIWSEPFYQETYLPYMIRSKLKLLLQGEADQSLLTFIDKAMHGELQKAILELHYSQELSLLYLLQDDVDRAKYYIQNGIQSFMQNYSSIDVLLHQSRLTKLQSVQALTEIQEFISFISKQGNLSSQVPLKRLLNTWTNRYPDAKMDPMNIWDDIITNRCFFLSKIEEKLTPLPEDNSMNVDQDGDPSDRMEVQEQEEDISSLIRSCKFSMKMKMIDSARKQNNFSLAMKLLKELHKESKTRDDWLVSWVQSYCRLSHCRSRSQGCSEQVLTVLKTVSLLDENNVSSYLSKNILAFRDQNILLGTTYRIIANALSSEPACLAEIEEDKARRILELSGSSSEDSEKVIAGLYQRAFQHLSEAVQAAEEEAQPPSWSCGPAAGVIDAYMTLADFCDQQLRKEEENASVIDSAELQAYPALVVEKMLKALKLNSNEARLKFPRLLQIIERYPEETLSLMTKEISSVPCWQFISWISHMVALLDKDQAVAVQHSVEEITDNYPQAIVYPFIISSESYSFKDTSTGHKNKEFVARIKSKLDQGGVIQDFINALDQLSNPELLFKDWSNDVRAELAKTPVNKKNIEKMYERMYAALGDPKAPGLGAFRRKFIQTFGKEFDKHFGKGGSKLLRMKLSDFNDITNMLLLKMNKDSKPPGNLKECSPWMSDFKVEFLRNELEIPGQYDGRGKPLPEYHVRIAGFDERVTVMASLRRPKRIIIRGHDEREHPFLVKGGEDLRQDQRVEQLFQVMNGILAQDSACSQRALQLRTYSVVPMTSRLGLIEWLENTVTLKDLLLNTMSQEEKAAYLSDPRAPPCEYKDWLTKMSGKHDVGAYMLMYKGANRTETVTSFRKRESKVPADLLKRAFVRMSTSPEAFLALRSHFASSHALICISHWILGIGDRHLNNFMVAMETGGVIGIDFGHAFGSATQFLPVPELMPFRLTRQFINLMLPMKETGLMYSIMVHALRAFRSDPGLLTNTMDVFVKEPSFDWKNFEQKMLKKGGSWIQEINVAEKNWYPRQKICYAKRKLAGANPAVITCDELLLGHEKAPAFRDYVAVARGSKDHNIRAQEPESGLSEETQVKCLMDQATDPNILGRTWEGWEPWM

IC50 [3]	Ki [4]	Ki [5]	Ki [6]	Ki [12]	Structure (SMILES)	further results
720 nM	340 nM	4 nM	150 nM	1020 nM	Cc1cc(NC(=O)CCNC(=O)Nc2nc(C)c(-c3ccc(-n4cccn4)cc3)s2)no1	bioavailability [1]: 3%; IC50 [2]: > 9100 nM; IC50 [7]: 14 nM; Tmax [8]: 480 min; AUC (Rattus norvegicus [9]): 0.69 µM·h; IC50 [10]: 5 nM; IC50 [11]: > 10000 nM; half-life [13]: 36 min; IC50 [14]: 40 nM; Vdss (Rattus norvegicus [15]): 0.4 L/kg; solubility [16]: < 2 µg/mL; Cmax [17]: 50 nM; IC50 [18]: > 9100 nM
220 nM	250 nM	740 nM	1890 nM	–	CC(=O)c1ccc(-c2sc(NC(=O)NCCC(=O)NC(C)(C)C)nc2C)cc1	bioavailability [1]: 57%; IC50 [2]: > 9100 nM; CL/F [19]: 23 mL/min/kg; IC50 [7]: 760 nM; Tmax [8]: 30 min; AUC [20]: 10.8 µM·h; IC50 [10]: 1160 nM; IC50 [11]: > 10000 nM; half-life [13]: 48 min; IC50 [14]: 240 nM; Vdss (Rattus norvegicus [15]): 1.4 L/kg; Cmax [17]: 1720 nM; IC50 [18]: > 9100 nM
2600 nM	1430 nM	210 nM	110 nM	110 nM	CC(=O)Nc1nc(C)c(-c2ccc(S(N)(=O)=O)cc2)s1	–
1930 nM	1360 nM	190 nM	200 nM	230 nM	CC(=O)Nc1nc(C)c(-c2ccc(S(C)(=O)=O)cc2)s1	–
1930 nM	1300 nM	79 nM	35 nM	57 nM	CC(=O)Nc1nc(C)c(-c2ccc(S(C)(=O)=O)c(Cl)c2)s1	–
340 nM	550 nM	61 nM	11 nM	32 nM	CC(=O)Nc1nc(C)c(-c2ccc(S(C)(=O)=O)c(Br)c2)s1	–
220 nM	–	–	–	–	CC(=O)Nc1nc(C)c(-c2ccc(S(C)(=O)=O)c(F)c2)s1	–
300 nM	760 nM	79 nM	45 nM	62 nM	CC(=O)Nc1nc(C)c(-c2ccc(S(C)(=O)=O)c(C#N)c2)s1	–
290 nM	870 nM	74 nM	28 nM	61 nM	CC(=O)Nc1nc(C)c(-c2ccc(S(C)(=O)=O)c(C(F)(F)F)c2)s1	–
320 nM	410 nM	19 nM	30 nM	110 nM	CC(=O)Nc1nc(C)c(-c2ccc(-n3cccn3)cc2)s1	–
1760 nM	1940 nM	260 nM	190 nM	260 nM	CC(=O)Nc1nc(C)c(-c2ccc(C(C)=O)cc2)s1	–
–	> 10000 nM	3620 nM	187 nM	5810 nM	Cc1nc(NC(=O)N2CCC[C@H]2C(N)=O)sc1-c1ccc(S(C)(=O)=O)cc1	–
–	> 10000 nM	1670 nM	20 nM	1140 nM	Cc1nc(NC(=O)N2CCC[C@H]2C(N)=O)sc1-c1ccc(S(C)(=O)=O)c(C(F)(F)F)c1	–
930 nM	2000 nM	220 nM	5 nM	530 nM	Cc1nc(NC(=O)N2CCC[C@H]2C(N)=O)sc1-c1ccc(-n2cccn2)cc1	bioavailability [1]: 21%; IC50 [2]: > 9100 nM; CL/F [19]: 21 mL/min/kg; IC50 [7]: 370 nM; Tmax [8]: 240 min; AUC [20]: 4.1 µM·h; IC50 [10]: 320 nM; IC50 [11]: > 10000 nM; half-life [13]: 42 min; IC50 [14]: 920 nM; Vdss (Rattus norvegicus [15]): 1.29 L/kg; Cmax [17]: 280 nM; IC50 [18]: > 9100 nM
–	–	–	–	–	NC(=O)[C@@H]1CCCN1C(=O)Nc1nc2ccc(-c3cnc(N)c(C(F)(F)F)c3)cc2s1	IC50 [21]: 2940 nM; IC50 [22]: 540 nM; IC50 [23]: 1190 nM; IC50 [24]: 40 nM
–	860 nM	3 nM	110 nM	120 nM	Cc1cc(NC(=O)CCNC(=O)Nc2nc(C)c(-c3ccc(S(C)(=O)=O)c(F)c3)s2)no1	–
–	90 nM	380 nM	2130 nM	20 nM	Cc1nc(NC(=O)NCCC(=O)OC(C)(C)C)sc1-c1ccc(S(C)(=O)=O)c(F)c1	–
270 nM	320 nM	470 nM	1400 nM	–	CCn1nnc(CCNC(=O)Nc2nc(C)c(-c3ccc(S(C)(=O)=O)c(F)c3)s2)n1	Cmax [25]: 490 nM; Tmax [26]: 60 min; AUC [27]: 4.31 µM·h; bioavailability [28]: 24%; IC50 [2]: > 9100 nM; IC50 [29]: 118 nM; CL/F [30]: 4 mL/min/kg; IC50 [7]: 590 nM; half-life [31]: 108 min; IC50 [10]: 1610 nM; IC50 [11]: > 10000 nM; IC50 [32]: 117 nM; IC50 [14]: 1330 nM; Vdss (Rattus norvegicus [33]): 0.6 L/kg; IC50 [18]: > 9100 nM
